Reference: patent US20110173718A1, “HERBICIDE TOLERANT PLANTS” (SYNGENTA CROP PROTECTION, INC., priority 2008, published 2011)
Like-named read-outs stand apart in the source and are kept apart here. Marks after values point to notes of the source that are not given here.

Legend:
[1] = target: T1, Arabidopsis HST (Arabidopsis thaliana, UniProt Q1ACB3); assay: HST total extraction (non TLC) assay, recombinant Arabidopsis HST from insect cells; assay type: biochemical
T1 construct: GST (factor Xa cleavage site) (N); made in house; host or cells: Sf9 insect cells (baculovirus, pAcG3X), membrane fraction
T1 sequence (Q1ACB3 70-386): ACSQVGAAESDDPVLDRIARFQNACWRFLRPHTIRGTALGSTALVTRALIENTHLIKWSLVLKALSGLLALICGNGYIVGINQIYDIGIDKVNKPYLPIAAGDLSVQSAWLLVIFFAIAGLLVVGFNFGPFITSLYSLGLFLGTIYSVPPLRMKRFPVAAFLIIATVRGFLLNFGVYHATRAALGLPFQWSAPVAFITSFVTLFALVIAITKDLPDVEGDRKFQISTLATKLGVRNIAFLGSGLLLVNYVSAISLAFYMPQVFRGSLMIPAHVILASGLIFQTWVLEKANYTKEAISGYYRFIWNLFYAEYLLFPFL

[2] = target: T2, Chlamydomonas HST (Chlamydomonas reinhardtii, UniProt A1JHN0); assay: HST assay (TLC, MFBQ formed), recombinant Chlamydomonas HST in E. coli membranes; assay type: biochemical; details: TLC, estimated amount of MFBQ formed, relative to controls
T2 construct: GST (N); made in house; host or cells: E. coli (BL21A1 / BL21DE3), membrane fraction
T2 sequence (A1JHN0 51-370): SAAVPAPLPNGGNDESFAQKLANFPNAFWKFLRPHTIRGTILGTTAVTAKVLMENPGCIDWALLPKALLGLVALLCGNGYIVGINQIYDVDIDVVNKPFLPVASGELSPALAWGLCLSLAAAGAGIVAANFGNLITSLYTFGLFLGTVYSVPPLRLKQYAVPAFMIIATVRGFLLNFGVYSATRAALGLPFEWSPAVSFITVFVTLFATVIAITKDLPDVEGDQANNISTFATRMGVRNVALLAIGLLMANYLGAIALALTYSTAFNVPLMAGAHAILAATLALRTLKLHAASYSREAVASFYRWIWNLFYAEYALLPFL
Method: Alternatively, Arabidopsis and Chlamydomonas mature HST coding sequences are cloned as GST N-terminal fusion enzymes and expressed in E. coli.
E. coli. BL21A1 cells expressing mature Arabidopsis or Chlamydonionas HST as a GST N-terminal fusion proteins are grown, harvested, broken and membrane fractions expressing HST produced.
For example, 1 ng of recombinant DNA is used to transform BL21DE3 cells to obtain a plateful of individual colonies. One of these colonies is picked and used to inoculate an overnight culture of 100 ml of Luria Broth (LB) supplemented with 50 ug/ml of kanamycin at final concentration, grown at 37° C. with shaking at 220 rpm. Next morning, 10 mls of the overnight culture is used to inoculate 11 of fresh sterile LB supplemented with 50 ug/ml of kanamycin at final concentration, grown at 37° C. with shaking at 220 rpm until the OD reached 0.6 at 600 nm, induced with the addition of 0.1 mM IPTG and left to induce at 15° C. overnight. The cells are harvested by centrifugation at 4600 rpm for 10 min at 4° C. and the pellet stored at −80° C. […] E. coli cell pellet is then resuspended in 25 ml of 50 mM Tris, pH 7.5 supplemented with Roche EDTA-free protease inhibitor tablet (one tablet in 200 mls of buffer). 10 ml of cells are lysed by sonication on ice. The resultant lysed cells are centrifuged at 3000 g for 10 min to pellet the cell nuclei/debris etc. 10 mls of supernatant is aspirated and centrifuged at 150,000 g for 60 min at 4° C. The pellet containing the membranes is resuspended in 2 ml of the above buffer. These samples are stored as 100 ul aliquots at −80° C., after being diluted with addition of glycerol to 50% v/v.
Prenyltransferase (HST) activities are measured by determining the prenylation rates of [U—^14C]homogentisate using farnesyl diphosphate (FDP) as prenyl donor. ^14C homogentisate is prepared from ^14C tyrosine using L amino acid oxidase and HPPD. For inhibitor testing, compounds are dissolved in dimethylsulfoxide (DMSO). DMSO added at up to 2% v/v has no effect on assays. Control assays contain DMSO at the same concentration as in inhibitor containing assays.
The recombinant Chlamydomonas HST expressed in E. coli membranes is assayed in standard reaction mixtures with 200 μM FDP and 100 μM ^14C-homogentisate (40 dpm/pmol) in 50 mM Tricine-NaOH pH 8.5, 20 mM MgCl2. Assays are started with the addition of enzyme and run for ˜20 min at 28° C.
Recombinant Arabidopsis and Rice HSTs are expressed in insect cells. Assays are run as for Chlamydomonas HST except that assay temperature is 27° C. Assays are stopped with 300 ul of solvent mix (1:2, Chloroform:Methanol) and 100 ul of 0.5% NaCl, agitated/mixed and spun at 13,000 rpm in a benchtop eppendorf centrifuge for 5 minutes. 80 ul of the lower phase extract is loaded onto a TLC plate (silica Gel 60, 20 cm×20 cm) FLA3000 system and run for 35 minutes in dichloromethane. The radioactivity is quantified using a Fuji Phosphoimager and band intensity integrated as quantitative measure of product amount. The bands corresponding to oxidised and reduced 2-methyl-6-farnesyl-1,4-benzoquinol (MFBQ) are identified and the total of the two (oxidised and reduced) band intensities is calculated in order to estimate the total amount of MFBQ product formation. Specific activities of 8 pmol MFBQ min^−1 mg^−1 protein (23 pmol) and 7 pmol MFBQ min^−1 mg^−1 protein (14 pmol) are, for example, estimated for the GST-fusion truncated Arabidopsis HST gene (SEQ ID # 3) expressed in membranes from insect cells 4 days and 5 days after transfection respectively. Similar results are noted from past literature on E. coli expressed Arabidopsis HST. Activity from the insect cell expressed GST-fusion truncated rice HST (SEQ ID# 4) is similar. Expression of the non-truncated HST coding sequences as GST fusions also gives HST activity. […]

[3] = system: weeds; assay: Glasshouse weed control, HST inhibitors alone and with A22, post-emergence; assay type: in vivo; details: 336 h, 14 DAT, single replicate, read-out: % control score, Obs; for pest or weed control at 15.625 g/ha: 15.625 g/ha alone; for pest or weed control at 62.5 g/ha: 62.5 g/ha alone; for pest or weed control at 250 g/ha: 250 g/ha alone
Method in brief: (§1)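 Weeds grown in glasshouse trays (24-27 C day, 18-21 C night, ~15 h photoperiod) and track-sprayed in 0.2% X77 at […], pre-emergence or post-emergence at about 7-12 d. HPPD inhibitor A22 applied at 2 g/ha alone or mixed with HST herbicides. Damage scored 0–100% at 14 DAT; synergy calculated by Colby formula.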

[4] = system: weeds; assay: Glasshouse weed control, HST inhibitors alone and with A22, pre-emergence; assay type: in vivo; details: 336 h, 14 DAT; for pest or weed control at 15.625 g/ha: HST inhibitor rate 15.625 g/ha; for pest or weed control at 62.5 g/ha: HST inhibitor rate 62.5 g/ha; for pest or weed control at 250 g/ha: HST inhibitor rate 250 g/ha
Method in brief: as §1

[5] = 3 point dose curves only conducted at 50 μM HPP
[6] = BRAPL, read-out: BRAPL Obs, % control score
[7] = PANMI, read-out: PANMI Obs, % control score
[8] = SIDSP, read-out: SIDSP Obs, % control score
[9] = Digitaria sanguinalis, DIGSA, read-out: DIGSA Obs, % control score
[10] = Echinochloa crus-galli, ECHCG, read-out: ECHCG Obs, % control score
[11] = Setaria faberi, SETFA, read-out: SETFA Obs, % control score

## Cn1c(=O)c(-c2c(F)ccc(F)c2Cl)c(O)c2nccnc21 [Compound 2.4]
[1]; [5]
  Estimated IC50 (ppm): 211* ppm
[2]
  Chlamydomonas. HST % I at 10 ppm: 5%
  Chlamydomonas. HST % I at 100 ppm: 45%

## Cn1c(=O)c(-c2c(F)ccc(Br)c2Cl)c(O)c2nccnc21 [Compound 2.5]
[1]; [5]
  Estimated IC50 (ppm): 48* ppm
[2]
  Chlamydomonas. HST % I at 10 ppm: 70%
  Chlamydomonas. HST % I at 100 ppm: 90%

## CC1=NN(C)C(=O)C(c2c(C)cc(C)cc2C)C1=O (stereo not shown) [Compound 6.1]
[3]; BRAPL
  pest or weed control at 15.625 g/ha: 10%
  pest or weed control at 62.5 g/ha: 40%
  pest or weed control at 250 g/ha: 75%
[3]; PANMI
  pest or weed control at 15.625 g/ha: 2%
  pest or weed control at 62.5 g/ha: 50%
  pest or weed control at 250 g/ha: 80%
[3]; SIDSP
  pest or weed control at 15.625 g/ha: 5%
  pest or weed control at 62.5 g/ha: 15%
  pest or weed control at 250 g/ha: 20%
[3]; Digitaria sanguinalis, DIGSA
  pest or weed control at 15.625 g/ha: 0%
  pest or weed control at 62.5 g/ha: 10%
  pest or weed control at 250 g/ha: 30%
[3]; Echinochloa crus-galli, ECHCG
  pest or weed control at 15.625 g/ha: 0%
  pest or weed control at 62.5 g/ha: 5%
  pest or weed control at 250 g/ha: 50%
[3]; Setaria faberi, SETFA
  pest or weed control at 15.625 g/ha: 0%
  pest or weed control at 62.5 g/ha: 20%
  pest or weed control at 250 g/ha: 70%
[4]; [6]
  pest or weed control at 15.625 g/ha: 0%
  pest or weed control at 62.5 g/ha: 0%
  pest or weed control at 250 g/ha: 10%
[4]; [7]
  pest or weed control at 15.625 g/ha: 0%
  pest or weed control at 62.5 g/ha: 0%
  pest or weed control at 250 g/ha: 40%
[4]; [8]
  pest or weed control at 15.625 g/ha: 0%
  pest or weed control at 62.5 g/ha: 0%
  pest or weed control at 250 g/ha: 0%
[4]; [9]
  pest or weed control at 15.625 g/ha: 0%
  pest or weed control at 62.5 g/ha: 0%
  pest or weed control at 250 g/ha: 2%
[4]; [10]
  pest or weed control at 15.625 g/ha: 0%
  pest or weed control at 62.5 g/ha: 1%
  pest or weed control at 250 g/ha: 60%
[4]; [11]
  pest or weed control at 15.625 g/ha: 0%
  pest or weed control at 62.5 g/ha: 2%
  pest or weed control at 250 g/ha: 20%
[1]
  Estimated IC50 (ppm): 63 ppm
